Patent publication US20230125429A1 (priority 2017, published 2023)
“And” between values parts separate entries of the source, which are not always exact repeats. Equal entries are not always repeated. “Also recorded” adds a separate entry of the source.

Tests used:
ACHN = experiment: Growth inhibitory effect, one hour exposure (IncuCyte Zoom); type: cell-based, human; details: Renal
Experimental: (§1) Cancer cell lines and immortalized human cell lines were cultured in 1640 tissue culture medium (Corning, USA) with 10% fetal bovine serum in a standard tissue culture condition of 37° C. and 5% CO2.
(§2) For primary hepatocytes, the seeded cells were monitored for up to 48 hours either without any treatment (as a control) or with various types of treatments. For primary keratinocytes, cells in 48-well plates were monitored either without any treatment or with various types of treatment for up to 96 hours. For HepG2, cells 96-well plates were monitored either without any treatment or with various types of treatments for up to 48 hours. The IncuCyte Zoom was set to take a set of images at fixed locations (4 per well for 96-well plates and 16 per well for 48-well plates and 12-well plates) every three hours.
(§3) The one-hour exposure is intended to simulate the transient high concentrations within the liver as the results of either the first pass effects of some orally administered drugs, or of locally delivered drugs, anticipating that such a short term exposure is nevertheless sufficient to affect certain cell surface receptors without causing any significant off-target effects due to intracellular absorption. Such a strategy would also reduce false hits due to reversible cell cycle arrests.
(§4) To address this possibility, we investigated whether other cell lines, including other HCC cell lines, cell lines from other type of cancers, as well as non-cancer immortalized/transformed cell lines, were also sensitive to Triptonide. Specifically, a total of 51 human cancer cell lines, representing 10 types of human cancers (6 non-small cell lung cancer cell lines, 5 colon cancer cell lines, 5 central nerve system cancer cell lines, 8 Melanomas cell lines, 4 ovarian cancer cell lines, 4 renal cancer cell lines, 2 prostate cancer cell lines, 3 breast cancer cell lines, 7 hepatocellular carcinoma cell lines, and 4 gastric cancer cell lines) were analyzed.

HCT-116 = experiment: as above; type: cell-based, human; details: HCT-116, Colon
Experimental: as §1, §2, §3, §4

Hep3B = experiment: as above; type: cell-based, human; details: Hepatocellular carcinoma
Experimental: as §1, §2, §3, §4

HepG2 = experiment: as above; type: cell-based, human
Experimental: as §1, §2, §3, §4

Huh7 = experiment: as above; type: cell-based, human; details: Huh7, Hepatocelular carcinoma
Experimental: as §1, §2, §3, §4

IGR-OV1 = experiment: as above; type: cell-based, human; details: IGR-OV1, Ovarian
Experimental: as §1, §2, §3, §4

LM9 = experiment: as above; type: cell-based, human; details: LM9, Hepatocellular carcinoma
Experimental: as §1, §2, §3, §4

M14 = experiment: as above; type: cell-based, human; details: M14, Melanoma
Experimental: as §1, §2, §3, §4

NCI-H226 = experiment: as above; type: cell-based, human; details: NCI-H226, Non-Small Cell Lung
Experimental: as §1, §2, §3, §4

NCI-H460 = experiment: as above; type: cell-based, human; details: NCI-H460, Non-Small Cell Lung
Experimental: as §1, §2, §3, §4

OVCAR-5 = experiment: as above; type: cell-based, human; details: OVCAR-5, Ovarian
Experimental: as §1, §2, §3, §4

SF-268 = experiment: as above; type: cell-based, human; details: SF-268, CNS
Experimental: as §1, §2, §3, §4

SF-295 = experiment: as above; type: cell-based, human; details: SF-295, CNS
Experimental: as §1, §2, §3, §4

SNU-387 = experiment: as above; type: cell-based, human; details: SNU-387, Hepatocellular carcinoma
Experimental: as §1, §2, §3, §4

SNU-449 = experiment: as above; type: cell-based, human; details: SNU-449, Hepatocellular carcinoma
Experimental: as §1, §2, §3, §4

U251 = experiment: as above; type: cell-based, human; details: U251, CNS
Experimental: as §1, §2, §3, §4

[1] = tested on: mimosine treated HepG2 cells; experiment: Cell cycle analysis by flow cytometry (PI staining); type: cell-based, human; details: for G2/M cells: 1 µM
wild-type keratinocytes = experiment: Growth of wild-type primary keratinocytes, short-term treatment; type: cell-based, mouse
[2] = tested on: HepG2-based orthotopic xenograft tumor; design: species or system nude mice; details: mouse, in vivo
[3] = tested on: HepG2-GFP orthotopic xenograft tumor
[4] = cited from earlier work
[5] = rodents, intraperitoneal injection

## CC(C)[C@]12O[C@H]1[C@@H]1O[C@@]13[C@@]1(C)CCC4=C(COC4=O)[C@@H]1C[C@@H]1O[C@@]13C2=O [Triptonide]
ACHN
  IC50: 15 µM
HCT-116
  IC50: 2.57 µM
Hep3B
  IC50: 1.28 µM
HepG2; 4 µM or higher for one hour
  effect on growth of HepG2: significant growth inhibition
HepG2; 16 µM and above, one hour
  effect on cell density of HepG2: apparent reduction in cell density
HepG2; HepG2, Hepatocellular carcinoma, one hour exposure
  IC50: 7.5 µM and 7.51 µM
Huh7
  IC50: 1.75 µM
IGR-OV1
  IC50: 4.66 µM
LM9
  IC50: 4.24 µM
M14
  IC50: 4.93 µM
NCI-H226
  IC50: 11.2 µM
NCI-H460
  IC50: 8.44 µM
OVCAR-5
  IC50: 8.23 µM
SF-268
  IC50: 11.8 µM
SF-295
  IC50: 14.6 µM
SNU-387
  IC50: 6.82 µM
SNU-449
  IC50: 4.92 µM
U251
  IC50: 43.2 µM
[1]; 11 hours after mimosine release
  G2/M cells: 82%
[1]; 24 hours after mimosine release
  G2/M cells: 80%
[1]; 37 hours after mimosine release
  G2/M cells: 78%
[1]; 10 µM, by 24 hours
  sub-G1 (<2N, apoptotic) population: significant peaks of the sub-G1
wild-type keratinocytes
  IC50: 1.29 µM
  effect on growth of wild-type keratinocytes: effective in inhibiting the growth; also recorded: complete growth inhibition; also recorded: significant growth suppressive effect
[2]
  intensities of the tumor specific signal / tumor mass: very effective in reducing the tumor mass; also recorded: reduced the tumor specific signal to the background level
[3]; 25 mg/kg by gavage every other day
  average body weight of the animals: did not have any significant impact
[3]; remaining mice, another four months without further treatments
  tumor specific signals during follow-up: No tumor specific signals were ever detected again
[3]; six of the treated mice
  autopsy for tumors: did not reveal any signs of tumors
[4]; rodent, following an oral dosing
  change of plasma concentration on redistribution: several dozen folds of decrease
[4]; [5]
  T1/2 alpha: 0.17 to 0.195 h
  T1/2 beta: 4.95 to 6.49 h
